According to ChEMBL document CHEMBL3351417, “Thiophene-3-carboxamide analogue of annonaceous acetogenins as antitumor drug lead” (Eur J Med Chem, 2014):
One block for each compound: values may come before it. Active and inactive are the calls of the source. No cut-off for these calls is given here.

How the values were obtained:
[1] = Growth inhibition of human HBC4 cells after 48 hrs by sulforhodamine B colorimetric assay; assay type: functional; details: HBC4, 48 h
[2] = Growth inhibition of human BSY1 cells after 48 hrs by sulforhodamine B colorimetric assay; assay type: functional; details: BSY-1, 48 h
[3] = Growth inhibition of human HBC5 cells after 48 hrs by sulforhodamine B colorimetric assay; assay type: functional; details: HBC5, 48 h
MCF7 = assay: Growth inhibition of human MCF7 cells after 48 hrs by sulforhodamine B colorimetric assay; assay type: functional; details: MCF7, 48 h
MDA-MB-231 = assay: Growth inhibition of human MDA-MB-231 cells after 48 hrs by sulforhodamine B colorimetric assay; assay type: functional; details: MDA-MB-231, 48 h
U-251 = assay: Growth inhibition of human U251 cells after 48 hrs by sulforhodamine B colorimetric assay; assay type: functional; details: U-251, 48 h
SF-268 = assay: Growth inhibition of human SF268 cells after 48 hrs by sulforhodamine B colorimetric assay; assay type: functional; details: SF-268, 48 h
[4] = Growth inhibition of human SF295 cells after 48 hrs by sulforhodamine B colorimetric assay; assay type: functional; details: SF-295, 48 h
[5] = Growth inhibition of human SF539 cells after 48 hrs by sulforhodamine B colorimetric assay; assay type: functional; details: SF-539, 48 h
SNB-75 = assay: Growth inhibition of human SNB75 cells after 48 hrs by sulforhodamine B colorimetric assay; assay type: functional; details: SNB-75, 48 h
[6] = Growth inhibition of human SNB78 cells after 48 hrs by sulforhodamine B colorimetric assay; assay type: functional; details: SNB-78, 48 h
[7] = Growth inhibition of human HCC2998 cells after 48 hrs by sulforhodamine B colorimetric assay; assay type: functional; details: HCC 2998, 48 h
KM12 = assay: Growth inhibition of human KM12 cells after 48 hrs by sulforhodamine B colorimetric assay; assay type: functional; details: KM12, 48 h
HT-29 = assay: Growth inhibition of human HT-29 cells after 48 hrs by sulforhodamine B colorimetric assay; assay type: functional; details: HT-29, 48 h
[8] = Growth inhibition of human HCT15 cells after 48 hrs by sulforhodamine B colorimetric assay; assay type: functional; details: HCT-15, 48 h
[9] = Growth inhibition of human HCT116 cells after 48 hrs by sulforhodamine B colorimetric assay; assay type: functional; details: HCT-116, 48 h
NCI-H23 [10] = assay: Growth inhibition of human NCI-H23 cells after 48 hrs by sulforhodamine B colorimetric assay; assay type: functional; details: NCI-H23, 48 h
NCI-H226 = assay: Growth inhibition of human NCI-H226 cells after 48 hrs by sulforhodamine B colorimetric assay; assay type: functional; details: NCI-H226, 48 h
NCI-H522 = assay: Growth inhibition of human NCI-H522 cells after 48 hrs by sulforhodamine B colorimetric assay; assay type: functional; details: NCI-H522, 48 h
NCI-H460 = assay: Growth inhibition of human NCI-H460 cells after 48 hrs by sulforhodamine B colorimetric assay; assay type: functional; details: NCI-H460, 48 h
A549 = assay: Growth inhibition of human A549 cells after 48 hrs by sulforhodamine B colorimetric assay; assay type: functional; details: A549, 48 h
[11] = Growth inhibition of human DMS273 cells after 48 hrs by sulforhodamine B colorimetric assay; assay type: functional; details: DMS-273, 48 h
[12] = Growth inhibition of human DMS114 cells after 48 hrs by sulforhodamine B colorimetric assay; assay type: functional; details: DMS-114, 48 h
[13] = Growth inhibition of human LOXIMVI cells after 48 hrs by sulforhodamine B colorimetric assay; assay type: functional; details: LOX IMVI
[14] = Growth inhibition of human OVCAR3 cells after 48 hrs by sulforhodamine B colorimetric assay; assay type: functional; details: OVCAR-3, 48 h
[15] = Growth inhibition of human OVCAR4 cells after 48 hrs by sulforhodamine B colorimetric assay; assay type: functional; details: OVCAR-4, 48 h
[16] = Growth inhibition of human OVCAR5 cells after 48 hrs by sulforhodamine B colorimetric assay; assay type: functional; details: OVCAR-5, 48 h
[17] = Growth inhibition of human OVCAR8 cells after 48 hrs by sulforhodamine B colorimetric assay; assay type: functional; details: OVCAR-8, 48 h
SK-OV-3 = assay: Growth inhibition of human SKOV3 cells after 48 hrs by sulforhodamine B colorimetric assay; assay type: functional; details: SK-OV-3, 48 h
[18] = Growth inhibition of human RXF631L cells after 48 hrs by sulforhodamine B colorimetric assay; assay type: functional; details: RXF 631, 48 h
ACHN = assay: Growth inhibition of human ACHN cells after 48 hrs by sulforhodamine B colorimetric assay; assay type: functional
St-4 = assay: Growth inhibition of human St-4 cells after 48 hrs by sulforhodamine B colorimetric assay; assay type: functional; details: St-4, 48 h
[19] = Growth inhibition of human MKN1 cells after 48 hrs by sulforhodamine B colorimetric assay; assay type: functional; details: MKN-1, 48 h
[20] = Growth inhibition of human MKN7 cells after 48 hrs by sulforhodamine B colorimetric assay; assay type: functional; details: MKN-7, 48 h
[21] = Growth inhibition of human MKN28 cells after 48 hrs by sulforhodamine B colorimetric assay; assay type: functional; details: MKN-28, 48 h
[22] = Growth inhibition of human MKN45 cells after 48 hrs by sulforhodamine B colorimetric assay; assay type: functional; details: MKN-45, 48 h
[23] = Growth inhibition of human MKN74 cells after 48 hrs by sulforhodamine B colorimetric assay; assay type: functional; details: MKN-74, 48 h
DU-145 = assay: Growth inhibition of human DU145 cells after 48 hrs by sulforhodamine B colorimetric assay; assay type: functional; details: DU-145, 48 h
[24] = Growth inhibition of human PC3 cells after 48 hrs by sulforhodamine B colorimetric assay; assay type: functional; details: PC-3, 48 h
NCI-H23 [25] = assay: Antitumor activity against human NCI-H23 cells xenografted in mouse assessed as inhibition of tumor growth on day 16 at 100 mg/kg, ip on day 0 and day 6; assay type: functional, organism-based; design: dose 100 mg/kg
NCI-H23 [26] = assay: Antitumor activity against human NCI-H23 cells xenografted in mouse assessed as average tumor size on day 16 at 100 mg/kg, ip on day 0 and day 6 relative to control mouse; assay type: functional; details: route intraperitoneal

GI50 (MCF7): 26.9 µM | GI50 (MDA-MB-231): > 100 µM | GI50 (U-251): > 100 µM | GI50 (HT-29): > 100 µM | GI50 (NCI-H23 [10]): 3.02 µM | GI50 (NCI-H226): > 100 µM | GI50 (NCI-H522): 10 µM | GI50 (NCI-H460): > 100 µM | GI50 (A549): > 100 µM | GI50 (SK-OV-3): > 100 µM | GI50 (ACHN): > 100 µM | GI50 (DU-145): > 100 µM
SMILES: CCCCCCCCCCCC[C@@H](O)[C@H]1CC[C@H]([C@H](O)CCCCCCCCCCNC(=O)c2ccoc2)O1
GI50 [1]: > 100 µM | GI50 [2]: 2.19 µM | GI50 [3]: > 100 µM | GI50 (SF-268): > 100 µM | GI50 [4]: > 100 µM | GI50 [5]: > 100 µM | GI50 (SNB-75): > 100 µM | GI50 [6]: > 100 µM | GI50 [7]: 79.4 µM | GI50 (KM12): > 100 µM | GI50 [8]: > 100 µM | GI50 [9]: 3.47 µM | GI50 [11]: > 100 µM | GI50 [12]: 0.191 µM | GI50 [13]: 21.9 µM | GI50 [14]: > 100 µM | GI50 [15]: 74.1 µM | GI50 [16]: > 100 µM | GI50 [17]: 66.1 µM | GI50 [18]: > 100 µM | GI50 (St-4): 97.7 µM | GI50 [19]: > 100 µM | GI50 [20]: 0.372 µM | GI50 [21]: 0.55 µM | GI50 [22]: > 100 µM | GI50 [23]: 21.9 µM | GI50 [24]: 52.5 µM

GI50 (MCF7): > 100 µM | GI50 (MDA-MB-231): > 100 µM | GI50 (U-251): > 100 µM | GI50 (HT-29): > 100 µM | GI50 (NCI-H23 [10]): 4.79 µM | GI50 (NCI-H226): > 100 µM | GI50 (NCI-H522): 19.1 µM | GI50 (NCI-H460): 34.7 µM | GI50 (A549): 34.7 µM | GI50 (SK-OV-3): > 100 µM | GI50 (ACHN): > 100 µM | GI50 (DU-145): > 100 µM
SMILES: CCCCCCCCCCCC[C@@H](O)[C@H]1CC[C@H]([C@H](O)CCCCCCCCCCNC(=O)c2cncs2)O1
GI50 [1]: > 100 µM | GI50 [2]: 3.98 µM | GI50 [3]: > 100 µM | GI50 (SF-268): > 100 µM | GI50 [4]: 43.7 µM | GI50 [5]: 50.1 µM | GI50 (SNB-75): > 100 µM | GI50 [6]: > 100 µM | GI50 [7]: > 100 µM | GI50 (KM12): > 100 µM | GI50 [8]: > 100 µM | GI50 [9]: 12.9 µM | GI50 [11]: 19.1 µM | GI50 [12]: 0.219 µM | GI50 [13]: > 100 µM | GI50 [14]: > 100 µM | GI50 [15]: > 100 µM | GI50 [16]: > 100 µM | GI50 [17]: > 100 µM | GI50 [18]: > 100 µM | GI50 (St-4): > 100 µM | GI50 [19]: > 100 µM | GI50 [20]: 0.617 µM | GI50 [21]: 0.832 µM | GI50 [22]: > 100 µM | GI50 [23]: 61.7 µM | GI50 [24]: > 100 µM

GI50 (MCF7): 2 µM | GI50 (MDA-MB-231): 4.47 µM | GI50 (U-251): > 100 µM | GI50 (HT-29): 1.91 µM | GI50 (NCI-H23 [10]): 0.2 µM | GI50 (NCI-H226): 2.4 µM | GI50 (NCI-H522): 1 µM | GI50 (NCI-H460): 4.9 µM | GI50 (A549): > 100 µM | GI50 (SK-OV-3): > 100 µM | GI50 (ACHN): 3.89 µM | GI50 (DU-145): 2.19 µM
SMILES: CCCCCCCCCCCC[C@@H](O)[C@H]1CC[C@H]([C@H](O)CCCCCCCCCCNC(=O)c2ccsc2)O1
GI50 [1]: > 100 µM | GI50 [2]: 3.02 µM | GI50 [3]: 2.09 µM | GI50 (SF-268): > 100 µM | GI50 [4]: 1 µM | GI50 [5]: > 100 µM | GI50 (SNB-75): 2.82 µM | GI50 [6]: > 100 µM | GI50 [7]: 2.19 µM | GI50 (KM12): 3.02 µM | GI50 [8]: 38 µM | GI50 [9]: 1.29 µM | GI50 [11]: 2 µM | GI50 [12]: 0.17 µM | GI50 [13]: 1.51 µM | GI50 [14]: 1.7 µM | GI50 [15]: 1.7 µM | GI50 [16]: 2.69 µM | GI50 [17]: 1.91 µM | GI50 [18]: > 100 µM | GI50 (St-4): 1.7 µM | GI50 [19]: 2.29 µM | GI50 [20]: 0.17 µM | GI50 [21]: 0.575 µM | GI50 [22]: 3.72 µM | GI50 [23]: 1.51 µM | GI50 [24]: 1.7 µM | inhibition (NCI-H23 [25]): Active | Activity (NCI-H23 [26]): 16%
